*1 amine or outer side, *2 acyl side, *3 side chain or, on linkers, in order; H or OH if unused. Where a SMILES comes first, the peptide text is derived from it. Side-chain parts run from the residue outwards. [ ]: non-standard residue; d: D form. The star is where a group is joined. γGlu = O=C(O)[C@H](CCC(=O)[*:2])N[*:1]; Palmitoyl = CCCCCCCCCCCCCCCC(=O)*; Aib = CC(C)(N)C(=O)O
How the values were obtained:
[1] = tested on: female leptin-receptor deficient diabetic db/db mice; test: Blood glucose and HbA1c in leptin-receptor deficient diabetic db/db mice (method 3); type: in vivo; conditions: single 100 μg/kg s.c., fed db/db mice
From the text: Female BKS.Cg-m+/+Leprdb/J (db/db) and BKS.Cg-m+/+Leprdb/+(lean control) mice were obtained from Charles River Laboratories, Germany, at an age of 9-10 weeks. The animals were housed in groups in a specific pathogen-free barrier facility on a 12-h light/dark cycle with free access to water and rodent-standard chow. After 1 week of acclimatization, blood samples were drawn from the tail without anaesthesia and blood glucose (method: d-glucose hexokinase, hemolysate, AU640 Beckman Coulter) and HbA1c level (method: hemolysate, Cobas6000 c501, Roche Diagnostics, Germany) were determined. […] The volume of administration was 5 mL/kg. The animals had access to water and chow during the experiment, food consumption was determined at all time points of blood sampling. […] Blood sampling was performed by tail incision without anaesthesia. […] At the end of the study, blood samples (tail, no anaesthesia) were analyzed for glucose and HbA1c. […] Statistical analyses were performed with Everstat 6.0 by repeated measures two-way ANOVA and Dunnett's post-hoc analyses. Differences versus vehicle-treated db/db control mice were considered statistically significant at the p<0.05 level. […] At predefined time points, more blood samples were taken to measure blood glucose and generate the blood glucose profile over 24 h. […] Blood glucose and HbA1c were determined before start of treatment and at the end of the study after 4 weeks of treatment. […] Before treatment started, no significant differences in blood glucose levels could be detected between db/db groups, only the lean control animals had significant lower glucose levels. During the 4 weeks of treatment, glucose levels increased in the vehicle-treated db/db control group, indicating a worsening of the diabetic situation.

[2] = Pharmacokinetic testing in mice, s.c.; conditions: mouse, plasma, sc, 1 mg/kg
Protocol: Mice were dosed 1 mg/kg subcutaneously (s.c.). The mice were sacrified and blood samples were collected after 0.25, 0.5, 1, 2, 4, 8, 16 and 24 hours post application. Plasma samples were analyzed after protein precipitation via liquid chromatography mass spectrometry (LC/MS). PK parameters and half-life were calculated using WinonLin Version 5.2.1 (non-compartment model).

human GIP receptor = biological target: T1, human GIP receptor (Homo sapiens, UniProt P48546); test: cAMP response (HTRF) of HEK-293 cells stably expressing human GIP receptor; type: cell-based; conditions: Table 7; cAMP formation; read-out: EC50 hGIP R
T1 construct: expressed in transfected cells
T1 sequence (P48546 22-466): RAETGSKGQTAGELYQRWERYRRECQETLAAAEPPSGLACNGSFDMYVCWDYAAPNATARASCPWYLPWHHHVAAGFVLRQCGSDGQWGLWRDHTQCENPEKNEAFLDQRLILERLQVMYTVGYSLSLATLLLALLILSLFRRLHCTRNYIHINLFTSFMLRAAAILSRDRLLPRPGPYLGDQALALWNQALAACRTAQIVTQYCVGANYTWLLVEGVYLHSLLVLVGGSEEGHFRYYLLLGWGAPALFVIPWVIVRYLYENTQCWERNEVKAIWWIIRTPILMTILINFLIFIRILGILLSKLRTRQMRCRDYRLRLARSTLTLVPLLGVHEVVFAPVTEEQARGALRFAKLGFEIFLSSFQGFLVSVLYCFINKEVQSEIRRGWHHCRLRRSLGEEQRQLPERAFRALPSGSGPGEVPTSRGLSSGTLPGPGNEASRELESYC
Protocol: (§1) cAMP content of cells was determined using a kit from Cisbio Corp. (cat. no. 62AM4PEC) based on HTRF (Homogenous Time Resolved Fluorescence). For preparation, cells were split into T175 culture flasks and grown overnight to near confluency in medium (DMEM/10% FBS). Medium was then removed and cells washed with PBS lacking calcium and magnesium, followed by proteinase treatment with accutase (Sigma-Aldrich cat. no. A6964). Detached cells were washed and resuspended in assay buffer (1×HBSS; 20 mM HEPES, 0.1% BSA, 2 mM IBMX) and cellular density determined. They were then diluted to 400000 cells/ml and 25 μl-aliquots dispensed into the wells of 96-well plates. For measurement, 25 μl of test compound in assay buffer was added to the wells, followed by incubation for 30 minutes at room temperature.

human GLP-1 receptor = biological target: T2, human GLP-1 receptor (Homo sapiens, UniProt P43220); test: cAMP response (HTRF) of HEK-293 cells stably expressing human GLP-1 receptor; type: cell-based; conditions: Table 7; cAMP formation; read-out: EC50 hGLP-1 R
T2 construct: expressed in transfected cells
T2 sequence (P43220 24-463): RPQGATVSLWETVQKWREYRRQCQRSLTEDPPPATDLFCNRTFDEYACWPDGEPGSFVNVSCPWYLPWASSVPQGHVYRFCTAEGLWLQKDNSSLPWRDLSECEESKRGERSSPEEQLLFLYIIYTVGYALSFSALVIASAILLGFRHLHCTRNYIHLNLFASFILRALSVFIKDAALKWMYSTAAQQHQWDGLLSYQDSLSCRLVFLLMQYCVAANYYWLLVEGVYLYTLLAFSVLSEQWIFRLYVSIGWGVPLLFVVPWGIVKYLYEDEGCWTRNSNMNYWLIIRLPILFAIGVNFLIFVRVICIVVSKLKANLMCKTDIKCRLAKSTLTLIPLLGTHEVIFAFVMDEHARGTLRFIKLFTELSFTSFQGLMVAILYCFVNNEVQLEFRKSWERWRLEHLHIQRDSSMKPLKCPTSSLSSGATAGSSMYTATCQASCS
Protocol: as §1

CCCCCCCCCCCCCCCC(=O)N[C@@H](CCC(=O)NCCCC[C@H](NC(=O)[C@H](CCC(N)=O)NC(=O)[C@@H](NC(=O)[C@H](CO)NC(=O)[C@H](CC(C)C)NC(=O)[C@H](CC(=O)O)NC(=O)[C@H](CO)NC(=O)[C@@H](NC(=O)[C@H](Cc1ccccc1)NC(=O)[C@@H](NC(=O)CNC(=O)[C@H](CCC(=O)O)NC(=O)C(C)(C)NC(=O)[C@@H](N)Cc1ccc(O)cc1)[C@@H](C)O)[C@@H](C)O)[C@@H](C)CC)C(=O)N[C@@H](CCC(=O)O)C(=O)N[C@@H](CO)C(=O)N[C@@H](CCCNC(=N)N)C(=O)N[C@@H](C)C(=O)N[C@@H](C)C(=O)N[C@@H](CCC(N)=O)C(=O)N[C@@H](CC(=O)O)C(=O)N[C@@H](Cc1ccccc1)C(=O)N[C@H](C(=O)N[C@@H](CCC(=O)O)C(=O)N[C@@H](Cc1c[nH]c2ccccc12)C(=O)N[C@@H](CC(C)C)C(=O)N[C@@H](CCCCN)C(=O)N[C@@H](C)C(=O)NCC(=O)NCC(=O)N1CCC[C@H]1C(=O)N[C@@H](CO)C(=O)N[C@@H](CO)C(=O)NCC(=O)N[C@@H](C)C(=O)N1CCC[C@H]1C(=O)N1CCC[C@H]1C(=O)N1CCC[C@H]1C(=O)N[C@@H](CO)C(N)=O)[C@@H](C)CC)C(=O)O [SEQ ID NO: 10, Y-Aib-E-G-T-F-T-S-D-L-S-I-Q-K(γE-x53)-ESRAAQDFIEWLKAGGPSSGAPPPS-NH2] (H-Y[Aib]EGTFTSDLSIQK([γGlu-Palmitoyl])ESRAAQDFIEWLKAGGPSSGAPPPS-NH2)
blood glucose compared to db/db control mice, 24 h profile [1]: significant decrease in blood glucose | Cmax [2]: 5820 ng/mL | half-life [2]: 2.7 h

CCCCCCCCCCCCCCCC(=O)N[C@@H](CCC(=O)NCCCC[C@H](NC(=O)[C@H](CCC(N)=O)NC(=O)[C@@H](NC(=O)[C@H](CO)NC(=O)[C@H](CC(C)C)NC(=O)[C@H](CC(=O)O)NC(=O)[C@H](CO)NC(=O)[C@@H](NC(=O)[C@H](Cc1ccccc1)NC(=O)[C@@H](NC(=O)CNC(=O)[C@H](CCC(=O)O)NC(=O)C(C)(C)NC(=O)[C@@H](N)Cc1ccc(O)cc1)[C@@H](C)O)[C@@H](C)O)[C@@H](C)CC)C(=O)N[C@@H](CCC(=O)O)C(=O)N[C@@H](CCCCN)C(=O)N[C@@H](CCCNC(=N)N)C(=O)N[C@@H](C)C(=O)N[C@@H](C)C(=O)NC(C)(C)C(=O)N[C@@H](CC(=O)O)C(=O)N[C@@H](Cc1ccccc1)C(=O)N[C@H](C(=O)N[C@@H](CCC(=O)O)C(=O)N[C@@H](Cc1c[nH]c2ccccc12)C(=O)N[C@@H](CC(C)C)C(=O)N[C@@H](CCCCN)C(=O)N[C@@H](CC(N)=O)C(=O)N[C@H](C(=O)NCC(=O)N1CCC[C@H]1C(=O)N[C@@H](CO)C(=O)N[C@@H](CO)C(=O)NCC(=O)N[C@@H](C)C(=O)N1CCC[C@H]1C(=O)N1CCC[C@H]1C(=O)N1CCC[C@H]1C(=O)N[C@@H](CO)C(N)=O)[C@@H](C)O)[C@@H](C)CC)C(=O)O [SEQ ID NO: 27, Y-Aib-E-G-T-F-T-S-D-L-S-I-Q-K(γE-x53)-E-K-R-A-A-Aib-D-F-I-E-W-L-K-N-T-G-P-S-S-G-A-P-P-P-S-NH2] (H-Y[Aib]EGTFTSDLSIQK([γGlu-Palmitoyl])EKRAA[Aib]DFIEWLKNTGPSSGAPPPS-NH2)
EC50 (human GIP receptor): 6.7 pM | EC50 (human GLP-1 receptor): 4 pM

CCCCCCCCCCCCCCCC(=O)N[C@@H](CCC(=O)NCCCC[C@H](NC(=O)[C@H](CCC(N)=O)NC(=O)[C@@H](NC(=O)[C@H](CO)NC(=O)[C@H](CC(C)C)NC(=O)[C@H](CC(=O)O)NC(=O)[C@H](CO)NC(=O)[C@@H](NC(=O)[C@H](Cc1ccccc1)NC(=O)[C@@H](NC(=O)CNC(=O)[C@H](CCC(N)=O)NC(=O)C(C)(C)NC(=O)[C@@H](N)Cc1ccc(O)cc1)[C@@H](C)O)[C@@H](C)O)[C@@H](C)CC)C(=O)N[C@@H](CCC(=O)O)C(=O)N[C@@H](CO)C(=O)N[C@@H](CCCNC(=N)N)C(=O)N[C@@H](C)C(=O)N[C@@H](C)C(=O)N[C@@H](CCC(N)=O)C(=O)N[C@@H](CC(=O)O)C(=O)N[C@@H](Cc1ccccc1)C(=O)N[C@H](C(=O)N[C@@H](CCC(=O)O)C(=O)N[C@@H](Cc1c[nH]c2ccccc12)C(=O)N[C@@H](CC(C)C)C(=O)N[C@@H](CCCCN)C(=O)N[C@@H](C)C(=O)NCC(=O)NCC(=O)N1CCC[C@H]1C(=O)N[C@@H](CO)C(=O)N[C@@H](CO)C(=O)NCC(=O)N[C@@H](C)C(=O)N1CCC[C@H]1C(=O)N1CCC[C@H]1C(=O)N1CCC[C@H]1C(=O)N[C@@H](CO)C(N)=O)[C@@H](C)CC)C(=O)O [SEQ ID NO: 32, Y-Aib-Q-G-T-F-T-S-D-L-S-I-Q-K(γE-x53)-ESRAAQDFIEWLKAGGPSSGAPPPS-NH2] (H-Y[Aib]QGTFTSDLSIQK([γGlu-Palmitoyl])ESRAAQDFIEWLKAGGPSSGAPPPS-NH2)
EC50 (human GIP receptor): 7.1 pM | EC50 (human GLP-1 receptor): 8.4 pM | Cmax [2]: 5520 ng/mL | half-life [2]: 2.7 h

CCCCCCCCCCCCCCCC(=O)N[C@@H](CCC(=O)NCCCC[C@H](NC(=O)[C@H](CCC(N)=O)NC(=O)[C@@H](NC(=O)[C@H](CO)NC(=O)[C@H](CC(C)C)NC(=O)[C@H](CC(=O)O)NC(=O)[C@H](CO)NC(=O)[C@@H](NC(=O)[C@H](Cc1ccccc1)NC(=O)[C@@H](NC(=O)CNC(=O)[C@H](CCC(=O)O)NC(=O)C(C)(C)NC(=O)[C@@H](N)Cc1ccc(O)cc1)[C@@H](C)O)[C@@H](C)O)[C@@H](C)CC)C(=O)N[C@@H](CCC(=O)O)C(=O)N[C@@H](CCCCN)C(=O)N[C@@H](CCCNC(=N)N)C(=O)N[C@@H](C)C(=O)N[C@@H](C)C(=O)NC(C)(C)C(=O)N[C@@H](CCC(=O)O)C(=O)N[C@@H](Cc1ccccc1)C(=O)N[C@H](C(=O)N[C@@H](CCC(=O)O)C(=O)N[C@@H](Cc1c[nH]c2ccccc12)C(=O)N[C@@H](CC(C)C)C(=O)N[C@@H](CCCCN)C(=O)N[C@@H](C)C(=O)NCC(=O)NCC(=O)N1CCC[C@H]1C(=O)N[C@@H](CO)C(=O)N[C@@H](CO)C(=O)NCC(=O)N[C@@H](C)C(=O)N1CCC[C@H]1C(=O)N1CCC[C@H]1C(=O)N1CCC[C@H]1C(=O)N[C@@H](CO)C(N)=O)[C@@H](C)CC)C(=O)O [SEQ ID NO: 36, Y-Aib-E-G-T-F-T-S-D-L-S-I-Q-K(γE-x53)-E-K-R-A-A-Aib-E-F-I-E-W-L-K-A-G-G-P-S-S-G-A-P-P-P-S-NH2] (H-Y[Aib]EGTFTSDLSIQK([γGlu-Palmitoyl])EKRAA[Aib]EFIEWLKAGGPSSGAPPPS-NH2)
EC50 (human GIP receptor): 6.4 pM
